Measurements published in US11571485B2, “Peptides and antibodies for detecting changes in alzheimer's disease brain and methods of use thereof” (Sanford Burnham Prebys Medical Discovery Institute, priority 2016, dated 2023).
“Also recorded” adds a separate entry of the source. Where no end group is shown, it is not given here.

Key:
[1] = system: human iPS cell-derived endothelial cells (ECs) from an AD patient; assay: AgNP binding to hiPSC-derived brain endothelial cells; format: cell-based; settings: for Binding to AD patient iPS cell-derived endothelial cells: AD patient vs normal donor cells
From the text: Human iPS cell-derived from an AD patient and from a normal individual were differentiated into endothelial cells and the cultured cells were used in an overlay assay with DAG-coated and control AgNP.
The details of human induced pluripotent stem cells (hiPSCs) derived from Alzheimer disease patients with APP duplication, and non-demented control individuals, are described previously (Israel et al., Nature 482, 216-220 (2012)). These hiPSCs were extensively characterized and have been established as an excellent human model for AD. An additional AD hiPSC line generated from dermal fibroblasts from an individual harboring a Presenilinl (PSEN1) mutation (Coriell Institute, Cat #AG06840) was used to further validate the results from the APP lines. hiPSCs were routinely maintained on mouse embryonic fibroblast as described before (Lin et al., Nat Methods 6, 805-808 (2009); Talantova et al., Proc Natl Acad Sci USA 110, E2518-2527 (2013)). Brain microvascular endothelial cells differentiation of hiPSCs was performed using a previously described protocol (Lippmann et al., Nature biotechnology 30, 783-791 (2012), with minor modifications. Briefly, feeder-free cultures of hiPSCs were allowed to spontaneously differentiate in the absence of bFGF for 5-7 days, and then transferred to Endothelial cell (EC) medium composed of human Endothelial Serum-Free Medium™ (Invitrogen) supplemented with 20 ng/ml bFGF and 1% platelet-poor plasma-derived bovine serum (PDS; Biomedical Technologies). After 1-2 days the cells were dissociated with dispase (2 mg/ml) and were plated on 12 well plates coated with a mixture of collagen IV (400 μg/ml) and fibronectin (100 μg/ml). Cells were then cultured in EC medium until they reached confluence, after which they were split and expanded to near 100% purity. BBB-type EC identity was confirmed by flow cytometry or double immunoreactivity to the hallmark efflux transporter p-glycoprotein and other EC markers (CD31, GLUT-1, PECAM, Occludin, and Claudin-5). Furthermore, the capability of these cells to make functional tight junctions and polarized efflux activity was validated using a dual chamber efflux transport assay as described before.
(§1) Cell binding experiments on U251 cells and hiPSCs were with done using peptide conjugated AgNP. U251 cells were cultured in a 96-well plate. The cells were blocked with 200 μl of 10% FCS in HBSS (Hanks' Balanced Salt Solution from Gibco) for 30 min at 37° C. Following that, DAG-AgNPs (0.5 nM concentration diluted in HBSS) alone or in the presence of free non-labeled peptide (200 μM) were incubated on the cells for 1 hour at 37° C. After washing the unbound AgNP with HBSS three times, the plates were imaged with fluorescent microscopy by looking at intrinsic emission from the FAM tag on the peptide. hiPSCs were cultured in 48 well plate and similar protocol as described above was followed, with the exception that AgNP concentration for incubation was kept at 0.15 nM. Nanoparticle binding was quantified from fluorescence micrographs using ImageJ™ software.

[2] = system: human AD brain sections; assay: Ex vivo overlay binding to human AD brain sections; settings: overlay
Description: PFA fixed sections were incubated in PBS for 10 minutes, followed by PBS-Triton-x-100 (0.2%) for 10 minutes. Sections were rinsed with PBST, mounted in a slide holder, and subsequently washed with PBS-T during 12 minutes. Slides were blocked with blocking buffer for 60 minutes at room temperature. Then, peptides were incubated at a concentration of 10 μg/mL dissolved in concentrated blocking buffer, for three hours at room temperature. Sections were then washed with three 4-minute washes of PBS-T, and subsequently fixed with PFA for 10 minutes, followed by three 3-minute washes with PBS-T. Sections were then incubated with primary antibody at 1/200 in diluted blocking buffer overnight at 4° C. Later, sections were washed with three 4-minute washes with PBS-T. Slides were then incubated with secondary antibody at 1/200 dilution in diluted blocking buffer for 30 minutes at room temperature, followed by three 4-minute washes of PBS-T. Sections were then counterstained with DAPI for 5 minutes, washed with PBS-T and mounted.
Postmortem human brain samples were obtained from the New York Brain Bank at Columbia University, New York. The patient was a person with a diagnosis of AD neuropathologic changes ([A3, B3, C3]). The normal brain tissue was obtained from BioChain Institute Inc. (Newark, Calif.). The donor was a person without any neurologic diagnosis on detailed neuropathologic evaluation. The Parkinson's disease brain tissue was obtained from UCSD Pathology bank. Frozen brain tissue was sectioned for immunohistochemistry and ex vivo overlay binding with FAM-peptides.

[3] = system: AD and WT mouse brain sections; assay: Overlay binding of peptide-coated silver nanoparticles on frozen mouse brain sections
From the text: CASPRLSKC recognizes the AD hippocampus in tissue section overlay assay. Silver nanoparticles were coated with the CASPRLSKC peptide or a control peptide and used to overlay brain sections from AD and normal mice. Silver staining was used to visualize binding and nuclei were stained with nuclear fast red. The CASPRLSKC nanoparticles bind to elongated structures that may represent nerve fibers. These structures are not present in the normal brain.
Binding of DAG conjugated silver nanoparticles on frozen brain sections from AD or WT animals in overlay binding assay was also tested. […] This binding is restricted to the hippocampal region CA1 and the dentate gyms. Frozen coronal sections from AD and WT mice were used for overlay experiments with DAG-AgNPs. Silver staining was used to visualize binding and nuclei were stained with nuclear fast red.
Silver nanoparticles (AgNPs) with PEG coating and peptide functionality were prepared as reported previously with some modifications (Braun et al., Nature materials 13, 904-911 (2014)). AgNPs of ˜35 nm diameter were synthesized by citrate acid reduction of silver nitrate in solution. First, AgNO3 (450 mg) dissolved in 2.5 L water was stirred and heated to a boil and 50 mL water containing trisodium citrate dihydrate (500 mg, Sigma) was added. After 30 min the solution was cooled to room temperature. The resulting optical density at 405 nm was ˜10. […]

[4] = system: human astrocytoma U251 cells; assay: AgNP binding to U251 cells; format: cell-based
Description: FIG. 7 is a graphical representation showing quantity of DAG-coated silver nanoparticles (DAG-AgNPs) binding to human astrocytoma U251 cells. Cultured U251 cells were incubated with DAG-AgNPs alone, in the presence of free non-labeled control peptide, or an excess of free, non-labeled DAG (both at 200 μM), for 1 hour at 37° C. Nanoparticle binding was quantified from fluorescence micrographs using ImageJ™ software. Scale bar, 20 μm.
as §1

Binding to AD brain sections compared to age-matched wild-type brain sections ([3]; frozen brain sections, overlay binding assay): over 10 fold
Binding to hippocampal CA1 region in AD brains versus WT brains ([3]; frozen coronal sections, hippocampal CA1 region): 14 fold
Substance: DAG-AgNPs: DAG-coated silver nanoparticles with PEG coating, FAM-cys-x-DAG-NH2 attached (CDAGRKQKC-NH2; not fully specified (N-terminus); also: attached via extra Cys thiol to maleimide-PEG on silver nanoparticles)
Inhibition of AgNP binding by free DAG peptide ([1]; 200 μM free non-labeled DAG): inhibited by the presence of free DAG peptide
Binding to AD patient iPS cell-derived endothelial cells [1]: bind to human iPS cell-derived endothelial cells (ECs) from an AD patient, but not to ECs derived from a normal donor; also recorded: binding to human IPS cell-derived endothelial cells (ECs) from an AD patient, but not to ECs derived from a normal donor
Binding to AD patient iPS cell-derived endothelial cells ([1]; listed as DAG-AgNP): high binding
Binding to human AD brain sections [2]: bind to sections from an AD patient with sporadic AD
Binding to U251 cells ([4]; 1 hour at 37° C.): bound robustly to these cells, much more so than non-targeted nanoparticles
Inhibition of binding to U251 cells by free DAG ([4]; excess free non-labeled DAG, 200 μM): inhibited by co-incubation with an excess of free, non-labeled DAG
